3 molecules from PMC7475166 (Journal of medicinal chemistry, 2015) can be followed below.

Some results are limits rather than exact numbers.

In assay [1] the target is Bcr-Abl^T315I in Ba/F3 cells (Homo sapiens, UniProt P00519+P11274, T315I). The settings on record: 500 nM, 3 h, immunoblot.
Assay [2] deals with Bcr-Abl^WT in Ba/F3 cells (Homo sapiens, UniProt P00519+P11274). The settings on record: 500 nM, 3 h, immunoblot. For orientation: A western blot detects proteins with antibodies after separation by electrophoresis.
The subject of assay [3] is parental Ba/F3 cells that do not express Bcr-Abl. In words: Counterscreen against parental Ba/F3 cells. It counts as cell-based. For orientation: A counterscreen serves to expose hits that act by an unwanted route or on another target.
The target in a further assay is CSF1R (Homo sapiens, UniProt P07333). In words: SelectScreen Kinase Profiling. In kind it is biochemical. The settings on record: read-out: inhibition of CSF1R.
In the next assay the target is Yes1 (Homo sapiens, UniProt P07947). As to the kind of experiment: SelectScreen Kinase Profiling. It counts as biochemical. The settings on record: read-out: inhibition of Yes1.
Another assay deals with Blk (Homo sapiens, UniProt P51451). As to the kind of experiment: SelectScreen Kinase Profiling. It counts as biochemical.
In a further assay the target is T1, MUSK (Homo sapiens, UniProt O15146).
T1 sequence (O15146 24-869): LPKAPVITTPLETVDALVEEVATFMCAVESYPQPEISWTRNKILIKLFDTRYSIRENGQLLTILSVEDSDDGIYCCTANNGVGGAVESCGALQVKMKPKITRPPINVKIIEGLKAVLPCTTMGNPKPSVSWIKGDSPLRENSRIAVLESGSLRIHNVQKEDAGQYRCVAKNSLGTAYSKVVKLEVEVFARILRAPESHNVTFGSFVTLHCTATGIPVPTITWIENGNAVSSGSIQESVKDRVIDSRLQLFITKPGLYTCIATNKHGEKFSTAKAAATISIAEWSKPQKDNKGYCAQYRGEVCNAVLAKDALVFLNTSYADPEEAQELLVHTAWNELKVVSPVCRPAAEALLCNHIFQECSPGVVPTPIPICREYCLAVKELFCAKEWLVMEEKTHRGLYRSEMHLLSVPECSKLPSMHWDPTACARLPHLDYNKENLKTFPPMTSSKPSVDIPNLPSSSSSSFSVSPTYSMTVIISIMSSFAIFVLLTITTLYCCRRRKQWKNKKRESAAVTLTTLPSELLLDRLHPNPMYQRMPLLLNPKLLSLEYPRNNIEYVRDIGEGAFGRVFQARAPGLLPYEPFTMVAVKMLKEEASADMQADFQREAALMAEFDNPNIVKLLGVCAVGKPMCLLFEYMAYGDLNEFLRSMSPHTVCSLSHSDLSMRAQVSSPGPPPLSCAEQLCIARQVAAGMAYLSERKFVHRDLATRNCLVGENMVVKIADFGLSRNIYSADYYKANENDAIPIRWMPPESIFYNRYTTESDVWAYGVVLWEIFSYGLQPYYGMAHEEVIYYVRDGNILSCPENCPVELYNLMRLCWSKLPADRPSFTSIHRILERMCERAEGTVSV
In words: SelectScreen Kinase Profiling. It counts as biochemical.

A further assay has as its target TrkA (Homo sapiens, UniProt P04629). As to the kind of experiment: SelectScreen Kinase Profiling. In kind it is biochemical.
In assay [4] the test system is diverse set of 66 kinases. As to the kind of experiment: SelectScreen Kinase Profiling, whole panel. The settings on record: 50 nM. It counts as biochemical.

Blk, sequence (P51451 whole entry): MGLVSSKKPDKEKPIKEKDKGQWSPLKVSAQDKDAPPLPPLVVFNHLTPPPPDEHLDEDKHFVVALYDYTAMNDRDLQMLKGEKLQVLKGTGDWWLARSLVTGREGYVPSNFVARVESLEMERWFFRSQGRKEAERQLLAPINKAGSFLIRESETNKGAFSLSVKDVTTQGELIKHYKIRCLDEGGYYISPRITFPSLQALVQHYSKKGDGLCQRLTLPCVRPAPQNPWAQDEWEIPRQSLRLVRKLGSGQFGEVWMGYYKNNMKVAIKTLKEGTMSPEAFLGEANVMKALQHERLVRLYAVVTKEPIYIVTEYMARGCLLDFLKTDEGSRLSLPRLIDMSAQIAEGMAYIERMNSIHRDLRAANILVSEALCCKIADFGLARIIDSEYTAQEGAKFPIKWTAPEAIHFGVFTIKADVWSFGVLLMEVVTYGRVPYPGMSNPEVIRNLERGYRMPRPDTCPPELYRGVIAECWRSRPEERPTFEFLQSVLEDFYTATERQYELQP
Yes1, sequence (P07947 whole entry): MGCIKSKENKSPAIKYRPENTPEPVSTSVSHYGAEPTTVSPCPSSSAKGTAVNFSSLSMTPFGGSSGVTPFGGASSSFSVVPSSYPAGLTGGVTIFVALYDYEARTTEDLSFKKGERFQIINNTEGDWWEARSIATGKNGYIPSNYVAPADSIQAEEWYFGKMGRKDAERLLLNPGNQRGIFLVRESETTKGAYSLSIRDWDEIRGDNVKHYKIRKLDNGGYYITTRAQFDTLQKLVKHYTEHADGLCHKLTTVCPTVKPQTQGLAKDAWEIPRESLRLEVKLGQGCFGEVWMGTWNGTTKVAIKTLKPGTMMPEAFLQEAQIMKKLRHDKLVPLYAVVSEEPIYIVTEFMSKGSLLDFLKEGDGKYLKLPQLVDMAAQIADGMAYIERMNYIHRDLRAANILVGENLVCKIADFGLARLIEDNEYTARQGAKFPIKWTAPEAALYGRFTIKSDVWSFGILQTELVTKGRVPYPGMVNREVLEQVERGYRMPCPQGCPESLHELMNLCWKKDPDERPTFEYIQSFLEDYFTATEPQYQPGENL
CSF1R, sequence (P07333 20-972): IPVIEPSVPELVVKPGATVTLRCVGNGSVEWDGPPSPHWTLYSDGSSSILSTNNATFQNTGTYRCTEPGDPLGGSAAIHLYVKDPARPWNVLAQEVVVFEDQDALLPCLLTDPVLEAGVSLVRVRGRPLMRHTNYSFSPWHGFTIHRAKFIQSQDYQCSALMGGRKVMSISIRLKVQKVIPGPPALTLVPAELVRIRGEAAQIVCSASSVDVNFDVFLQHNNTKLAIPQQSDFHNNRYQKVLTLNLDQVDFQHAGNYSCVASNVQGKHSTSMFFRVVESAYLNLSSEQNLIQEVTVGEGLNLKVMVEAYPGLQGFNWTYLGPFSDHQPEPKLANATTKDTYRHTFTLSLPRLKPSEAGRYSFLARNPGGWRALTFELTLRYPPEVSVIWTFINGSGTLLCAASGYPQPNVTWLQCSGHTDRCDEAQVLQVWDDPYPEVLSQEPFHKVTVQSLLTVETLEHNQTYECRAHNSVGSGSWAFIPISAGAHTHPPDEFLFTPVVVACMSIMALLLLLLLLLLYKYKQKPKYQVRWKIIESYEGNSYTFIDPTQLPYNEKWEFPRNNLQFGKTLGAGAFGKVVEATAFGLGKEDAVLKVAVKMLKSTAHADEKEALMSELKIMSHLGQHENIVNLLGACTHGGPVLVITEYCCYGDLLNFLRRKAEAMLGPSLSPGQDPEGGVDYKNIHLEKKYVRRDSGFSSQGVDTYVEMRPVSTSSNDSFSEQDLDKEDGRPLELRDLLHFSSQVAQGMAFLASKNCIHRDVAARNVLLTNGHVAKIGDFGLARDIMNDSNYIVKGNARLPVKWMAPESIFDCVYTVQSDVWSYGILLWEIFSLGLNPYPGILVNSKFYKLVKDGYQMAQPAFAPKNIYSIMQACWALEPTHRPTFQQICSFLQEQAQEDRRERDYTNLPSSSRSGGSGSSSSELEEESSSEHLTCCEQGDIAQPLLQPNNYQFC
TrkA, sequence (P04629 33-796): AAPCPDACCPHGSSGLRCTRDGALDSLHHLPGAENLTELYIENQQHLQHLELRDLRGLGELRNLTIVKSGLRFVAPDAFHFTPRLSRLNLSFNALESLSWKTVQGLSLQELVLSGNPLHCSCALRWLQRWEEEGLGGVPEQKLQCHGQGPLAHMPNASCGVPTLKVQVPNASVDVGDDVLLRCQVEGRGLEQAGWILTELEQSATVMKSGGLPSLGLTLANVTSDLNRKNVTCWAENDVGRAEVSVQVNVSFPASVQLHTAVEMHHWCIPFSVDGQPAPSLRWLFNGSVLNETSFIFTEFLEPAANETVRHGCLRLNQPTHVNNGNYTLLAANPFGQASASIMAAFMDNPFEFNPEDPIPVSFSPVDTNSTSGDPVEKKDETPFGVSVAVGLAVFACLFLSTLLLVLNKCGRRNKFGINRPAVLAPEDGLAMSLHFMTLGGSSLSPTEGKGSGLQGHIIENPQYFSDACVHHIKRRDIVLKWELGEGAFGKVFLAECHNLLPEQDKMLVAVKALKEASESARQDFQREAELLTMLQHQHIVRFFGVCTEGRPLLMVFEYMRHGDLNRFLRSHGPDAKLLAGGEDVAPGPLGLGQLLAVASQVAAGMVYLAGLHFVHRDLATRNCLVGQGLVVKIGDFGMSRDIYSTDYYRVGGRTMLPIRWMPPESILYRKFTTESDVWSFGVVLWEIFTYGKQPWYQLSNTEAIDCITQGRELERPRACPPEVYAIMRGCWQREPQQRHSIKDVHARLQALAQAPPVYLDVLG

With `CC(C)n1nc(C#Cc2cccc(O)c2)c2c(N)ncnc21` [Compound 3, 3-((4-Amino-1-isopropyl-1H-pyrazolo[3,4-d]pyrimidin-3-yl)-ethynyl)phenol], the “phosphorylation of Abl (Tyr412) and STAT5 (Tyr694)” value in assay [1] and in [2] was “only partially inhibited” throughout.
As to `CC(C)n1nc(C#Cc2cccc(NC(=O)c3cccc(C(F)(F)F)c3)c2)c2c(N)ncnc21` [Compound 15, N-(3-((4-Amino-1-isopropyl-1H-pyrazolo[3,4-d]pyrimidin-3-yl)-ethynyl)phenyl)-3-(trifluoromethyl)benzamide], the “window between IC50 values against parental Ba/F3 cells and those expressing Bcr-Abl” value in assay [3] is recorded as “over 100 fold”. In [3] (at concentrations below 1 μM), the “inhibition of proliferation of parental Ba/F3 cells” value is given as “do not inhibit”. Also, the inhibition at 0.05 µM on CSF1R and on Yes1 was 40 to 80% each time. Also, the “inhibition of Blk” value on Blk (50 nM) is on record as “not significantly affected”. For the same molecule, the “inhibition of MUSK” value against MUSK (50 nM) is reported as “not significantly affected”. Besides, the “inhibition of TrkA” value against TrkA (50 nM) is reported as “not significantly affected”. The “number of kinases potently inhibited (>80% inhibition)” value in [4] came out at 9. The “phosphorylation of Abl (Tyr412) and STAT5 (Tyr694)” value in assay [1] and in assay [2] was “abolished” throughout.
As for `Cc1ccc(C(=O)Nc2ccc(CN3CCN(C)CC3)c(C(F)(F)F)c2)cc1C#Cc1cnc2cccnn12` [Ponatinib, reference compound], the inhibition at 0.05 µM at CSF1R, at Yes1, at Blk (read-out: inhibition of Blk), at MUSK (read-out: inhibition of MUSK) and at TrkA (read-out: inhibition of TrkA) was greater than 80% each time.

As a reminder, the inhibition is the drop in the measured response relative to a control, in per cent.
